These results are taken from publication PMC11788587, “Validating Low‐Dose Iohexol as a Marker for Glomerular Filtration Rate by In Vitro and In Vivo Studies” (Clinical and Translational Science, 2025).

Details of data set [1]: method as in PMID 32989831, PMID 30449032. As to conditions: cited from earlier work.
In another data set the target is T1, hOATP1B3 (Homo sapiens, UniProt Q9NPD5).
T1 construct: expressed in transfected cells; host or cells: 293 cells (control: empty vector)
T1 sequence (Q9NPD5 1-702): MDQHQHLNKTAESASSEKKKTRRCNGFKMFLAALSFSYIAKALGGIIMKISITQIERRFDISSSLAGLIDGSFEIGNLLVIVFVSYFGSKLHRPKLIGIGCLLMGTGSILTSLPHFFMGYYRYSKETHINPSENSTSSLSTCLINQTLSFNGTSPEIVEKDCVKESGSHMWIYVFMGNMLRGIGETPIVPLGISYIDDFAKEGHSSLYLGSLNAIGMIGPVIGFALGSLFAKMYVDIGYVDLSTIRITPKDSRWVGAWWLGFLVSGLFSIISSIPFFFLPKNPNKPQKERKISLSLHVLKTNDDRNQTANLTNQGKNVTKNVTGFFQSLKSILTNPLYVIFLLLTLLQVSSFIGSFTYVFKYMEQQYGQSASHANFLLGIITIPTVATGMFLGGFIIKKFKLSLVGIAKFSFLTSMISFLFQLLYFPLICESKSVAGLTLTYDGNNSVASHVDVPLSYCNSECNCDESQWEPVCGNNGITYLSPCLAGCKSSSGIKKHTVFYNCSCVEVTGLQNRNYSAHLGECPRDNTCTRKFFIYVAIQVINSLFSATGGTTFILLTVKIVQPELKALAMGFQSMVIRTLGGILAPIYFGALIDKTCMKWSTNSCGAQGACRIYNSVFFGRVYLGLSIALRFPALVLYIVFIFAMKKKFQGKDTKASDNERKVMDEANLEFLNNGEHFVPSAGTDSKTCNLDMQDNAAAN
In words: Inhibition of hOATP1B3-mediated 3H-BSP uptake, stably transfected 293 cells. The settings on record: substrate 0.02 μM 3H-BSP, median (95% CI). The class given is cell-based. From the text: We characterized the inhibitory potential of iohexol on major drug transporters recommended by regulatory agencies, which were previously assessed in a clinical transporter phenotyping cocktail study. These transporters include hOAT1, hOAT3, hOCT1, hOCT2, hMATE1, hMATE2K, human organic anion transporter polypeptides (hOATP)1B1, hOATP1B3, and human multidrug resistance protein (hMDR)1. Additionally, we investigated whether iohexol is a substrate for any of the renal transporters among these, including hOAT1/3, hOCT1/2, and hMATE1/2K. Cell‐based uptake assays were used to assess the activities of hOAT1/3, hOCT1/2, hMATE1/2K, and hOATP1B1/1B3. Inside‐out membrane vesicle uptake assays were used to evaluate the activity of hMDR1.
To determine the maximal inhibitory potential of iohexol, intracellular accumulation of a standard substrate was measured with and without the clinically relevant highest concentrations of iohexol. Control inhibitors were tested in each experiment.
In all subsequent in vitro studies, control experiments were conducted to validate the results. […] Each condition, including cells or vesicles with the transporter and their respective controls, was analyzed in at least three replicates. […]
Uptake assays were carried out with stably transfected 293 cells expressing hOATP1B1 or hOATP1B3, as well as cells containing an empty vector, using the method described by Hsin CH, et al..^1 For the inhibition assays, cells were incubated with the radiolabeled standard substrates specific to each transporter: 0.01 μM ^3H-estrone sulfate for hOATP1B1, and 0.02 μM ^3H-bromosulphophthalein (BSP) for hOATP1B3. […] The accumulation of radio-labelled probe substrates (^3H) in the cell lysate is determined using a Tri-Carb 2810 liquid scintillation counter (PerkinElmer, Waltham, MA, USA) as described previously.^1 Cellular protein amount was determined in parallel from 6 paired wells per cell line and experimental day, using the Bradford method.^2 The 1X lysis buffer (5X lysis buffer from Promega, diluted 1+4 [v/v] in ddH2O) was used as the lysis buffer. […]

For data set [2] the following is noted: cited from earlier work.
A short description of data set [3]: Clinical trial in healthy volunteers, adverse events. Type of data set: in vivo, human. As to conditions: 12 healthy subjects, single i.v. doses 259 mg and 3235 mg. On the procedure: The trial had two separate objectives, that is, (i) to assess dose linearity of iohexol pharmacokinetics for a lower dose (reported here) and (ii) to improve the assessment of creatinine volume of distribution by oral administration of creatinine in beef meat (will be reported separately). Building on the PK findings from a 3235 mg iohexol injection, we determined that the current quantification method is sufficiently sensitive to measure iohexol plasma concentrations corresponding to doses over 10 times lower, up to at least 20 h postadministration. Therefore, a 259 mg iohexol dose was selected for this study. […] Each participant was randomly assigned to one of six sequences, receiving iohexol intravenously at different single doses on separate occasions: (1) 259 mg iohexol without beef ingestion (defined as “fasting,” “test”); (2) 3235 mg iohexol fasting (“reference”); and (3) 3235 mg iohexol with beef ingestion (not reported here). The washout interval between administrations was 7 to 14 days. Adverse events were surveyed until the completion of the study.
Adverse events were monitored at multiple time points: within 1 hour before the administration of iohexol, and then at 10 minutes, 30 minutes, 1 hour, and 2 hours post-dose, as well as at the end of hospitalization for each period and during the end-of-study evaluation. Vital signs were recorded at the same time points as adverse events. Overall health was reassessed at the end of the study.

Turning to `CC(=O)N(CC(O)CO)c1c(I)c(C(=O)NCC(O)CO)c(I)c(C(=O)NCC(O)CO)c1I` (stereo not shown) [iohexol], in data set [1], the “Iohexol clearance under OCT2 and MATE inhibitors” value is on record as “unaffected”. Moreover, the “Inhibitory effect (% reduction of specific activity)” value at hOATP1B3 (20 mM iohexol) is reported as “no notable inhibitory effects”. In addition, at hOATP1B3 (human, stably transfected 293 cells expressing hOATP1B3, probe 3H-bromosulphophthalein (BSP), 2 mM iohexol, read-out: Inhibitory effect (% reduction of specific activity)), the inhibition at 7 min, 2 mM was -2.5%. Also, the inhibition at 7 min, 20 mM at hOATP1B3 (human, stably transfected 293 cells expressing hOATP1B3, probe 3H-bromosulphophthalein (BSP), 20 mM iohexol, read-out: Inhibitory effect (% reduction of specific activity)) is -21%. Also, in data set [2] (healthy adults, 95% CI 7.08–7.68 L/h, ref 44 Olsson et al.), the Iohexol clearance is listed as 7.32 L/h. Besides, the Median renal clearance in data set [2] (healthy adults, interquartile range 6.36–7.50, ref 39 Sterner et al.) was 6.78 L/h/1.73 m^2. Also, the Volume of distribution in data set [2] (healthy volunteers) was 0.27 L/kg. For the same compound, in data set [3], the “Adverse events related to iohexol” value is “None of these were related to iohexol”, the “Number of adverse events reported” value was found to be 9 and the “Subjects reporting adverse events” value is recorded as 7 of 12.
